According to PMC3806465, “Discovery and Evaluation of Thiazinoquinones as Anti-Protozoal Agents” (Marine Drugs, 2013):
Where two headings read alike, the source gives them in different places.

Columns and labels:
[1] = test system: Trypanosoma cruzi, Tulahuen C4 strain, amastigotes stage; experiment: In vitro activity against T. cruzi; format: cell-based
Procedure: (§1) The in vitro activities against the protozoan parasites T.b. rhodesiense, T. cruzi, L. donovani, and P. falciparum and cytotoxicity assessment against L6 cells were determined as reported elsewhere.

[2] = test system: Plasmodium falciparum, K1 strain, IEF stage; experiment: In vitro activity against P. falciparum K1; format: cell-based; conditions: for SI Pf: Selectivity index for P. falciparum = IC50 L6/IC50 Pf
Procedure: as §1

[3] = test system: Trypanosoma brucei rhodesiense, STIB 900 strain, trypomastigotes stage; experiment: In vitro activity against T. b. rhodesiense; format: cell-based
Procedure: as §1

[4] = test system: Leishmania donovani, MHOM-ET-67/L82 strain, amastigote/axenic stage; experiment: In vitro activity against L. donovani; format: cell-based
Procedure: as §1

[5] = test system: L6 rat skeletal myoblast cell line; experiment: Cytotoxicity against L6 cells; format: cell-based
Procedure: as §1

[6] = Trypanosoma cruzi, TULAHUEN, Tulahuen C4, amastigotes, average of two independent assays, read-out: IC50 T. cruzi
[7] = Trypanosoma brucei, STIB 900, trypomastigotes, average of two independent assays, read-out: IC50 T. b. rhod.
[8] = Leishmania donovani, MHOM-ET-67/L82, axenic amastigotes, average of two independent assays, read-out: IC50 L. don.
[9] = Plasmodium falciparum, K1 dual drug resistant strain, IEF stage, average of two independent assays, read-out: IC50 P. falc. K1
[10] = Rattus norvegicus, Myoblast, cytotoxicity, L6 rat skeletal myoblasts, average of two independent assays, read-out: IC50 L6

Compound | IC50 [1, 6] [µM] | IC50 [3, 7] [µM] | IC50 [4, 8] [µM] | IC50 [2, 9] [nM] | SI Pf [2] | IC50 [5, 10] [µM] | melting point | further results
O=C(Cn1ccnc1[N+](=O)[O-])NCc1ccccc1 [Benznidazole, reference compound] | 1.8 | – | – | – | – | – | – | IC50 ([1]; Trypanosoma cruzi, TULAHUEN, Myoblast, in Rattus norvegicus, read-out: IC50 T. cruzi, Tulahuen C2C4, amastigote forms in L6 rat myoblasts, positive control): 0.352 µg/mL; IC50 ([1]; Tulahuen C4, amastigotes, average of two independent assays, read-out: IC50 T. cruzi): 1.4 µM
CCN(CC)CCCC(C)Nc1ccnc2cc(Cl)ccc12 (stereo not drawn) [Chloroquine, reference compound] | – | – | – | – | – | – | – | IC50 ([2]; Plasmodium falciparum, K1, read-out: IC50 P. falc. K1, K1 dual drug resistant strain, IEF stage, average of two independent assays): 200 nM; IC50 ([2]; Plasmodium falciparum, K1, read-out: IC50 P. falciparum, K1 (chloroquine and pyrimethamine resistant), erythrocytic stages, positive control): 0.065 µg/mL; IC50 ([2]; read-out: IC50 P. falc. K1, K1 dual drug resistant strain, IEF stage, average of two independent assays): 280 nM
O=C(O)c1ccc2c(n1)C(=O)C1=C(C2=O)S(=O)(=O)CCN1 [Compound 2, ascidiathiazone A] | > 290 | 3.1 | 270 | 3300 | 50 | 167 | – | IC50 ([5]; cytotoxicity, L6 rat skeletal myoblasts, average of two independent assays, read-out: IC50 L6): 170 µM
COC(=O)c1ccc2c(n1)C(=O)C1=C(C2=O)S(=O)(=O)CCN1 [Compound 3] | 180 | 6.6 | 31 | 2500 | 56 | 140 | – | –
O=C(O)c1ccc2c(n1)C(=O)C1=C(C2=O)S(=O)(=O)C=CN1 [Compound 4] | > 290 | 4 | 190 | 600 | 300 | 180 | – | –
CCCCNC(=O)c1ccc2c(n1)C(=O)C1=C(C2=O)S(=O)(=O)CCN1 [Compound 7a, N-n-Butyl-5,10-dioxo-3,4,5,10-tetrahydro-2H-[1,4]thiazino[2,3-g]quinoline-7-carboxamide 1,1-Dioxide] | 63 | 5.5 | > 280 | 940 | 26 | 24 | 200 °C (dec.) | –
CCCCCNC(=O)c1ccc2c(n1)C(=O)C1=C(C2=O)S(=O)(=O)CCN1 [Compound 7b, N-n-Pentyl-5,10-dioxo-3,4,5,10-tetrahydro-2H-[1,4]thiazino[2,3-g]quinoline-7-carboxamide 1,1-Dioxide] | 15 | 1.8 | 29 | 620 | 37 | 23 | 200 °C (dec.) | –
CCCCCCCCNC(=O)c1ccc2c(n1)C(=O)C1=C(C2=O)S(=O)(=O)CCN1 [Compound 7c, N-n-Octyl-5,10-dioxo-3,4,5,10-tetrahydro-2H-[1,4]thiazino[2,3-g]quinoline-7-carboxamide 1,1-Dioxide] | 15 | 3.9 | 48 | 1100 | 10 | 12 | 200 °C (dec.) | –
O=C(NCc1ccccc1)c1ccc2c(n1)C(=O)C1=C(C2=O)S(=O)(=O)CCN1 [Compound 7d, N-Benzyl-5,10-dioxo-3,4,5,10-tetrahydro-2H-[1,4]thiazino[2,3-g]quinoline-7-carboxamide 1,1-Dioxide] | 43 | 1.9 | 21 | 1100 | 14 | 15 | 200 °C (dec.) | –
O=C(NCCc1ccccc1)c1ccc2c(n1)C(=O)C1=C(C2=O)S(=O)(=O)CCN1 [Compound 7e, N-Phenethyl-5,10-dioxo-3,4,5,10-tetrahydro-2H-[1,4]thiazino[2,3-g]quinoline-7-carboxamide 1,1-Dioxide] | 140 | 2.4 | 160 | 1500 | 72 | 110 | 240 °C (dec.) | –
O=C(NCCCc1ccccc1)c1ccc2c(n1)C(=O)C1=C(C2=O)S(=O)(=O)CCN1 [Compound 7f, N-(3-Phenylpropyl)-5,10-dioxo-3,4,5,10-tetrahydro-2H-[1,4]thiazino[2,3-g] quinoline-7-carboxamide 1,1-Dioxide] | 27 | 2.4 | 47 | 1400 | 10 | 13 | 204 °C (dec.) | –
CC(C)=CCC/C(C)=C/CNC(=O)c1ccc2c(n1)C(=O)C1=C(C2=O)S(=O)(=O)CCN1 [Compound 7g, (E)-N-(3,7-Dimethylocta-2,6-dien-1-yl)-5,10-dioxo-3,4,5,10-tetrahydro-2H-[1,4]thiazino [2,3-g]quinoline-7-carboxamide 1,1-Dioxide] | 41 | 3.4 | 83 | 1600 | 15 | 24 | 200 °C (dec.) | –
C#CCNC(=O)c1ccc2c(n1)C(=O)C1=C(C2=O)S(=O)(=O)CCN1 [Compound 7h, N-(Prop-2-yn-1-yl)-5,10-dioxo-3,4,5,10-tetrahydro-2H-[1,4]thiazino[2,3-g]quinoline-7-carboxamide 1,1-Dioxide] | 53 | > 150 | 170 | 2400 | 17 | 41 | 280 °C (dec.) | –
COCCNC(=O)c1ccc2c(n1)C(=O)C1=C(C2=O)S(=O)(=O)CCN1 [Compound 7i, N-(2-Methoxyethyl)-5,10-dioxo-3,4,5,10-tetrahydro-2H-[1,4]thiazino[2,3-g] quinoline-7-carboxamide 1,1-Dioxide] | – | – | – | – | – | – | 200 °C (dec.) | –
COC(=O)CNC(=O)c1ccc2c(n1)C(=O)C1=C(C2=O)S(=O)(=O)CCN1 [Compound 7j, Methyl 2-(1,1-Dioxido-5,10-dioxo-3,4,5,10-tetrahydro-2H-[1,4]thiazino[2,3-g]quinoline-7-carboxamido)acetate] | 250 | 120 | > 260 | 3400 | 31 | 110 | 200 °C (dec.) | –
CCCCNC(=O)c1ccc2c(n1)C(=O)C1=C(C2=O)S(=O)(=O)C=CN1 [Compound 8a, N-n-Butyl-5,10-dioxo-5,10-dihydro-4H-[1,4]thiazino[2,3-g]quinoline-7-carboxamide 1,1-Dioxide] | 63 | 3.7 | > 280 | 700 | 33 | 23 | 200 °C (dec.) | –
CCCCCNC(=O)c1ccc2c(n1)C(=O)C1=C(C2=O)S(=O)(=O)C=CN1 [Compound 8b, N-n-Pentyl-5,10-dioxo-5,10-dihydro-4H-[1,4]thiazino[2,3-g]quinoline-7-carboxamide 1,1-Dioxide] | 48 | 3.6 | > 270 | 1500 | 3 | 4.8 | 280 °C (dec.) | –
COC(=O)CNC(=O)c1ccc2c(n1)C(=O)C1=C(C2=O)S(=O)(=O)C=CN1 [Compound 8j, Methyl 2-(1,1-dioxido-5,10-dioxo-5,10-dihydro-4H-[1,4]thiazino[2,3-g]quinoline-7-carboxamido)acetate] | 160 | 35 | 220 | 1800 | 57 | 100 | – | –
O=C(O)CNC(=O)c1ccc2c(n1)C(=O)C1=C(C2=O)S(=O)(=O)C=CN1 [Compound 8k, 2-(1,1-Dioxido-5,10-dioxo-5,10-dihydro-4H-[1,4]thiazino[2,3-g]quinoline-7-carboxamido)acetic Acid] | 160 | 42 | > 280 | 1200 | 93 | 110 | – | –
COC(=O)c1cc2c(s1)C(=O)C1=C(NCCS1(=O)=O)C2=O [Compound 10b, Methyl 5,9-Dioxo-2,3,5,9-tetrahydro-1H-thieno[3′,2′:4,5]benzo [1,2-b][1,4]thiazine-7-carboxylate 4,4-Dioxide] | – | – | – | – | – | – | 280 °C (dec.) | –
O=C(O)c1cc2c(s1)C(=O)C1=C(NCCS1(=O)=O)C2=O [Compound 11b, 5,9-Dioxo-2,3,5,9-tetrahydro-1H-thieno[3′,2′:4,5]benzo[1,2-b][1,4] thiazine-7-carboxylic Acid 4,4-Dioxide] | – | – | – | – | – | – | 200 °C (dec.) | –
Nc1nc(N)nc(Nc2ccc([As]3SCC(CO)S3)cc2)n1 (stereo not drawn) [Melarsoprol, reference compound] | – | – | – | – | – | – | – | IC50 ([3]; Trypanosoma brucei, read-out: IC50 T. b. rhod., STIB 900, trypomastigotes, average of two independent assays): 0.005 µM; IC50 ([3]; Trypanosoma brucei, read-out: IC50 T.b. rhodesiense, STIB900, trypomastigote forms, positive control): 4 ng/mL; IC50 ([3]; read-out: IC50 T. b. rhod., STIB 900, trypomastigotes, average of two independent assays): 0.01 µM
CCCCCCCCCCCCCCCCOP(=O)([O-])OCC[N+](C)(C)C [Miltefosine, reference compound] | – | – | 0.5 | – | – | – | – | IC50 ([4]; Leishmania donovani, MHOM/ET/67/L82, axenic amastigote forms, positive control, read-out: IC50 L. donovani): 0.213 µg/mL; IC50 ([4]; MHOM-ET-67/L82, axenic amastigotes, average of two independent assays, read-out: IC50 L. don.): 0.53 µM
COc1cc([C@@H]2c3cc4c(cc3[C@H](O)[C@H]3COC(=O)[C@H]23)OCO4)cc(OC)c1OC [Podophyllotoxin, reference compound] | – | – | – | – | – | – | – | IC50 ([5]; Rattus norvegicus, L6, read-out: IC50 L6 cells, rat skeletal myoblasts, positive control): 4 ng/mL; IC50 ([5]; Rattus norvegicus, Myoblast, read-out: IC50 L6, cytotoxicity, L6 rat skeletal myoblasts, average of two independent assays): 0.01 µM; IC50 ([5]; read-out: IC50 L6, cytotoxicity, L6 rat skeletal myoblasts, average of two independent assays): 0.019 µM
